Test results published in patent EP1818060A1, “Cosmetic composition comprising Fadogia ancylantha extracts” (ARTSANA S.p.A., priority 2005, dated 2007).
Marks after values point to notes of the source that are not given here.

Assay: Antioxidant activity, DPPH test
Format: biochemical
Details: second SC50 column; control; in brackets tolerated range 95%
Protocol: The antioxidant activity of the dry extract A, obtained as above illustrated in Example 1, of Fadogia ancylantha was determined using the 2,2 diphenyl-1-picrilhydrazilic stable radical (DPPH°) and α-tocopherol as a control, according to the protocol disclosed by Aquino R. et al. in "Phenolic constituents and antioxidant activity of an extract of Anthurium versicolor leaves", J. of Natural products 64, 1019-1023.
The decrease of absorbance measured according to the above protocol is directly correlated with the free-radical scavenger ability of the antioxidant under test.
The DPPH° percentage remaining at the steady state (%DPPH°RIM) is calculated by applying the following formula %DPPH°RIM = (DPPH)° × T1 /(DPPH°) × To × 100 [formula] where T1 is the time to reach the steady state.
The amount of the antioxidant needed to reduce the radical initial concentration to a half (SC50, expressed as µg of the extract/ml) was calculated from the percentage of DPPH°RIM with respect to the antioxidant concentrations used.
All tests were carried out in triplicate and repeated for three times.

## Cc1c(C)c2c(c(C)c1O)CC[C@@](C)(CCC[C@H](C)CCC[C@H](C)CCCC(C)C)O2 [α-tocopherol]
  DPPH test SC50: 10.1 (8.8-11.4)^c µg/ml of phenols
